# Measurements from US5596002A, “Method of treating chloroquine-resistant malaria with aminoquinoline derivatives” (Hoffmann-La Roche Inc., priority 1993, dated 1997).
# Where two headings read alike, the source gives them in different places.
# Columns and labels:
# [1] = system: Plasmodium falciparum, chloroquine-sensitive strain Ro7 3; assay: activity against P. falciparum in vitro, strain Ro7 3; type: cell-based; conditions: chloroquine-sensitive strain Ro7 3, 48 h-72 h, read-out: IC50 (50% growth inhibition)
# Method: (§1) Test method for the determination of the activity against P. falciparum in vitro
# (§2) The preparations of the present invention were tested on intraerythrocytary stages of P. falciparum from asynchronous cultures according to the method of Desjardin et al. (Desjardins, R. E. et al: Quantitative assessment of antimalarial activity in vitro by a semiautomated microdilution technique. Antimicrob. Agents Chemother. 16, 710-718, (1979)).
# (§3) The culture medium consisted of RPMI 1640 with the addition of 25 mM HEPES, 25 mM NaHCO3, […] neomycin and 10% human serum (A^+). Human-A^+ erythrocytes were used as the P. falciparum host cells. The parasites were maintained at 37° C. in an atmosphere of 3% O2, 4% CO2, 93% N2 and at 95% relative humidity.
# (§4) In order to determine the activity, the preparations were dissolved in DMSO, pre-diluted in the culture medium to a suitable starting concentration and subsequently titrated-out into microtitre plates in the 2nd stage over 6-7 steps. After the addition of the parasite culture (0.7% parasitemia in 2.5% erythrocyte suspension), the test plates were incubated under the conditions given above for 48 h-72 h. The parasite growth in the different preparation concentrations was determined using [G-^3 H]-hypoxanthin incorporation compared to untreated control cultures on the same test plates. The 50% growth inhibition (IC50) was calculated according to logit regression analysis from the resulting dosage-activity curve.
# (§5) The preparations were tested on at least one chloroquine-resistant and one chloroquine-sensitive P. falciparum strain. Additional sensitive and resistant strains were also included for further characterization.
# (§6) Table 1 below contains the IC50 values measured in vitro for the growth inhibition of chloroquine-sensitive and chloroquine-resistant strains of the human pathogenic Plasmodium falciparum.
# [2] = system: Plasmodium falciparum, chloroquine-resistant strain 7G8; assay: activity against P. falciparum in vitro, strain 7G8; type: cell-based; conditions: chloroquine-resistant strain 7G8, 48 h-72 h, read-out: IC50 (50% growth inhibition)
# Method: as §1, §2, §3, §4, §5, §6
# [3] = system: Plasmodium falciparum, chloroquine-sensitive strain FCH5C2; assay: activity against P. falciparum in vitro, strain FCH5C2; type: cell-based; conditions: chloroquine-sensitive strain FCH5C2, 48 h-72 h, read-out: IC50 (50% growth inhibition)
# Method: as §1, §2, §3, §4, §5, §6
# [4] = system: Plasmodium falciparum, chloroquine-resistant strain K1; assay: activity against P. falciparum in vitro, strain K1; type: cell-based; conditions: Plasmodium falciparum; chloroquine-resistant strain K1; 48 h-72 h; read-out: IC50 (50% growth inhibition)
# Method: as §1, §2, §3, §4, §5, §6
# [5] = system: Plasmodium falciparum, chloroquine-sensitive strain RFMEF3; assay: activity against P. falciparum in vitro, strain RFMEF3; type: cell-based; conditions: chloroquine-sensitive strain RFMEF3, 48 h-72 h, read-out: IC50 (50% growth inhibition)
# Method: as §1, §2, §3, §4, §5, §6
# [6] = system: Plasmodium falciparum, chloroquine-resistant strain ItG2 F6; assay: activity against P. falciparum in vitro, strain ItG2 F6; type: cell-based; conditions: chloroquine-resistant strain ItG2 F6, 48 h-72 h, read-out: IC50 (50% growth inhibition)
# Method: as §1, §2, §3, §4, §5, §6
# [7] = system: Plasmodium falciparum, chloroquine-resistant strain RFCR3; assay: activity against P. falciparum in vitro, strain RFCR3; type: cell-based; conditions: chloroquine-resistant strain RFCR3, 48 h-72 h, read-out: IC50 (50% growth inhibition)
# Method: as §1, §2, §3, §4, §5, §6
# [8] = system: Plasmodium falciparum, chloroquine-resistant strain W2; assay: activity against P. falciparum in vitro, strain W2; type: cell-based; conditions: chloroquine-resistant strain W2, 48 h-72 h, read-out: IC50 (50% growth inhibition)
# Method: as §1, §2, §3, §4, §5, §6
# [9] = system: Plasmodium falciparum, chloroquine-resistant strain Indo; assay: activity against P. falciparum in vitro, strain Indo; type: cell-based; conditions: chloroquine-resistant strain Indo, 48 h-72 h, read-out: IC50 (50% growth inhibition)
# Method: as §1, §2, §3, §4, §5, §6
# [10] = system: Plasmodium berghei (strain ANKA); assay: activity against Plasmodium berghei in vivo (infected mice); conditions: mice; for ED50: single administration po, dose reducing average erythrocyte infection rate by 50%, read-out: ED50 (po); for inhibition in vivo at 10 mg/kg: 48 hours after treatment (D+3)
# Method: Test method for the determination of the activity against Plasmodium berghei in vivo
# The preparations according to the present invention were tested on mice infected with malaria pathogens (Plasmodium berghei). Male albino mice (IBM:MORO(SPF), FUELLINSDORF) weighing about 25 g were used as the test animals. They were kept in climatized rooms at 21°-22° C. in groups of 5 animals per cage. They received ad libitum a diet feed with a low PABA content ("NAFAG FUTTER" No. 9009 PAB-45, PABA content 45 mg/kg) and drinking water. On the first day of the test (D0) the test animals were infected with Plasmodium berghei (strain ANKA). For this there was used heparinized blood of a donor mouse with about 30% parasitemia, which was diluted with physiological saline such that it contains 10^8 parasitized erythrocytes per ml. 0.2 ml of this suspension was injected intravenously (i.v.) into the mice to be treated and into the control mice. In untreated control animals the parasitemia normally reaches 30-40% on the third day after the infection (D+3) and the test animals die between days +5 and +7.
# The substances to be tested were dissolved or suspended in distilled water or in a mixture of 7% Tween 80, 3% alcohol (96%) and water. Usually, 0.25 ml of this solution or suspension was administered once subcutaneously and perorally to groups of 5 test animals. Treatment was effected 24 hours after the infection. 10 control animals were treated in the same manner with solvent or suspension medium per test.
# All substances were tested in a first test in a single dosage of 10 mg/kg. Only those substances which in this test (10 mg/kg) had shown a parasitaemia reduction of 90% were used for the titration.
# 48 hours after the treatment (D+3), blood smears were prepared from all animals using blood from tail veins and were stained with Giemsa. The average erythrocyte infection rate (parasitemia in %) in the control groups as well as in the groups which had been treated with the test compounds was determined by counting under a microscope. The difference in the average values of the infection rates of control group (100%) and treated groups was calculated and expressed as a percentage reduction (GI %). The ED50 or ED90 was determined mathematically by means of the JMP programme (nonlinear fit). The ED50 (ED90) in mg/kg is that dose which after single administration reduces the average erythrocyte infection rate by 50% (90%) in comparison to the control group.
# Table 2 below contains data with respect to the activity measured against Plasmodium berghei in mice: GI % is the percentage reduction in the parasitemia after a single dose of 10 mg/kg of the test substance administered perorally (po) or subcutaneously (sc); ED50 and ED90 are the effective doses of the test substance administered perorally or subcutaneously.
# [11] = system: Plasmodium falciparum, chloroquine-sensitive strain NF54; assay: activity against P. falciparum in vitro, strain NF54; type: cell-based; conditions: Plasmodium falciparum; chloroquine-sensitive strain NF54; 48 h-72 h; read-out: IC50 (50% growth inhibition)
# Method: as §1, §2, §3, §4, §5, §6
# [12] = system: Plasmodium falciparum, chloroquine-sensitive strain HB3; assay: activity against P. falciparum in vitro, strain HB3; type: cell-based; conditions: chloroquine-sensitive strain HB3, 48 h-72 h, read-out: IC50 (50% growth inhibition)
# Method: as §1, §2, §3, §4, §5, §6
# [13] = system: Plasmodium falciparum, chloroquine-resistant strain W2 Mef; assay: activity against P. falciparum in vitro, strain W2 Mef; type: cell-based; conditions: 48 h-72 h, read-out: IC50 (50% growth inhibition)
# Method: as §1, §2, §3, §4, §5, §6
# [14] = single dose 10 mg/kg po, read-out: GI % at 10 mg/kg (po): percentage reduction in the parasitemia
# [15] = single dose 10 mg/kg sc, read-out: GI % at 10 mg/kg (sc): percentage reduction in the parasitemia
SMILES,IC50 [1] [ng/mL],IC50 [2] [ng/mL],IC50 [3] [ng/mL],IC50 [4] [ng/mL],IC50 [5] [ng/mL],IC50 [6] [ng/mL],IC50 [7] [ng/mL],IC50 [8] [ng/mL],IC50 [9] [ng/mL],ED50 [10] [mg/kg],"inhibition in vivo at 10 mg/kg [10, 14] [%]","inhibition in vivo at 10 mg/kg [10, 15] [%]",IC50 [11] [ng/mL],IC50 [12] [ng/mL],IC50 [13] [ng/mL]
"CC(CN(C)C)Nc1ccnc2cc(Cl)ccc12 (racemic) [Example 1, (RS)-N2-(7-Chloro-quinolin-4-yl)-N1,N1-dimethyl-propane-1,2-diamine]",5,9,8,9,7,4,15,9,8,2.3,99.9,99.9,4,7,7
"CCN(CC)CC(C)Nc1ccnc2cc(Cl)ccc12 (racemic) [Example 2, (RS)-N2-(7-Chloro-quinolin-4-yl)-N1,N1-diethyl-propane-1,2-diamine]",6,8,7,14,7,5,8,8,6,3.2,99.8,99.9,7,7,9
"CCN(CC)[C@@H]1CCCC[C@H]1Nc1ccnc2cc(Cl)ccc12 (racemic) [Example 9, (1RS,2RS)-N1-(7-Chloro-quinolin-4-yl)-N2,N2-diethyl-cyclohexane-1,2-diamine]",11,30,15,32,12,17,17,31,18,4.4,99,99.6,11,14,25
"Clc1ccc2c(N[C@@H]3CCCC[C@H]3N3CCCC3)ccnc2c1 (racemic) [Example 10, (1RS,2RS)-(7-Chloro-quinolin-4-yl)-(2pyrrolidin-1-yl-cyclohexyl)-amine]",7,15,5,17,6,7,18,13,16,6.4,99,99,7,8,15
"CCN(CC)[C@@H]1CCC[C@H]1Nc1ccnc2cc(Cl)ccc12 (racemic) [Example 11, (1RS,2RS)-N1-(7-Chloro-quinolin-4-yl)-N2,N2-diethyl-cyclopentane-1,2-diamine]",5,9,7,18,6,6,13,15,10,2.2,99.9,99.9,5,6,9
"CN1CCCC(Nc2ccnc3cc(Cl)ccc23)C1 (racemic) [Example 19a, (RS)-(7-Chloro-quinolin-4-yl)-(1-methyl-piperidin-3-yl)-amine]",5,8,7,9,7,5,11,10,8,2.4,99.9,99.9,6,6,6
"CN1CCC(Nc2ccnc3cc(Cl)ccc23)C1 (racemic) [Example 33a, (R,S)-(7-Chloro-quinolin-4-yl)-(1-methyl-pyrrolidin-3-yl)-amine]",5,9,8,8,7,5,9,9,9,3.3,99.7,99.9,7,7,7
Clc1ccc2c(NCCN3CCC4CCCCC43)ccnc2c1 (stereo not drawn) [Example 31],5,9,5,11,6,7,14,14,7,,,,5,5,7
Clc1ccc2c(NCCN3CC4CCC(CC4)C3)ccnc2c1 [Example 32],7,15,9,16,8,10,16,15,15,,,,7,9,13
